Structures are written as SMILES.

Assay type in all cases: binding
Holding throughout (parameters): KINOMEscan: ABL1(F317L)-phosphorylated / KINOMEscan: ABL1(H396P)-nonphosphorylated / KINOMEscan: ABL1(H396P)-phosphorylated / KINOMEscan: ABL1(M351T)-phosphorylated / KINOMEscan: ABL1(T315I)-phosphorylated / KINOMEscan: ABL1-nonphosphorylated / KINOMEscan: ABL1-phosphorylated / KINOMEscan: ACVR2A / KINOMEscan: ACVR2B / KINOMEscan: ADCK3 / KINOMEscan: ADCK4 / KINOMEscan: AKT1 / KINOMEscan: AKT3 / KINOMEscan: ALK / KINOMEscan: ARK5 / KINOMEscan: AURKA / KINOMEscan: AURKC / KINOMEscan: BIKE / KINOMEscan: BMPR1A / KINOMEscan: BMPR1B / KINOMEscan: BMX / KINOMEscan: BRK / KINOMEscan: BRSK1 / KINOMEscan: BRSK2 / KINOMEscan: CAMK1 / KINOMEscan: CAMK1D / KINOMEscan: CAMK1G / KINOMEscan: CAMK2A / KINOMEscan: CAMK2B / KINOMEscan: AAK1 / KINOMEscan: CAMK2D / KINOMEscan: CAMK2G / KINOMEscan: ABL1(F317I)-nonphosphorylated / KINOMEscan: ABL1(F317I)-phosphorylated / KINOMEscan: ABL1(F317L)-nonphosphorylated: unit: % Ctrl
Common to all, as to settings: Compound Concentration 10 µM

The target in experiment [1] is T1, panel of 442 kinases (Homo sapiens, UniProt P07949).
T1 construct: purchased KINOMEscan
An excerpt:
(§1) We assessed the selectivity of members of this scaffold using the KINOMEscan methodology across a near comprehensive panel of 442 kinases [[18,27]].

For experiment [2], the target named is T2, panel of 442 kinases (Homo sapiens, UniProt O15111).
T2 construct: purchased KINOMEscan
T2 sequence (O15111 1-745): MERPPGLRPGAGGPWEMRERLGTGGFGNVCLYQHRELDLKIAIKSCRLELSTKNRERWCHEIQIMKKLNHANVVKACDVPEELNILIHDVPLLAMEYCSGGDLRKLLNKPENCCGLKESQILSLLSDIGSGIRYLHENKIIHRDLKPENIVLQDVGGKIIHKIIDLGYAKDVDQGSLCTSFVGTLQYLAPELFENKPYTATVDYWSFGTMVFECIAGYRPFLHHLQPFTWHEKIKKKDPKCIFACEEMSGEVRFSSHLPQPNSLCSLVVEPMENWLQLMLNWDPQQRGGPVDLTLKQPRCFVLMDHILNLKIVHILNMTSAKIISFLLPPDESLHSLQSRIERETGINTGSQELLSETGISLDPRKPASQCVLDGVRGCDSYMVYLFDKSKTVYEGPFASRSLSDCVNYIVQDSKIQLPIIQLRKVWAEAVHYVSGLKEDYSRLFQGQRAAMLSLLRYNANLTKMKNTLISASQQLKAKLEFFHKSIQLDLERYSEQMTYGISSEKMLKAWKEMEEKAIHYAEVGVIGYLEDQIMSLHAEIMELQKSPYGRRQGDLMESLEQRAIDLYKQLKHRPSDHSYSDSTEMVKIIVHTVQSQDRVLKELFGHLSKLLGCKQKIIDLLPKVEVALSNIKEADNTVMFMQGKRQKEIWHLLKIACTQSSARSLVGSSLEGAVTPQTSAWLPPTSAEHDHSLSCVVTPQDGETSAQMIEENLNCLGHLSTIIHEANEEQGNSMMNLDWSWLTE
Source text: as §1

Experiment [3] concerns the target T3, panel of 442 kinases (Homo sapiens, UniProt P00519, T315I).
T3 construct: purchased KINOMEscan
Source text: as §1

T1 sequence (P07949 29-1114): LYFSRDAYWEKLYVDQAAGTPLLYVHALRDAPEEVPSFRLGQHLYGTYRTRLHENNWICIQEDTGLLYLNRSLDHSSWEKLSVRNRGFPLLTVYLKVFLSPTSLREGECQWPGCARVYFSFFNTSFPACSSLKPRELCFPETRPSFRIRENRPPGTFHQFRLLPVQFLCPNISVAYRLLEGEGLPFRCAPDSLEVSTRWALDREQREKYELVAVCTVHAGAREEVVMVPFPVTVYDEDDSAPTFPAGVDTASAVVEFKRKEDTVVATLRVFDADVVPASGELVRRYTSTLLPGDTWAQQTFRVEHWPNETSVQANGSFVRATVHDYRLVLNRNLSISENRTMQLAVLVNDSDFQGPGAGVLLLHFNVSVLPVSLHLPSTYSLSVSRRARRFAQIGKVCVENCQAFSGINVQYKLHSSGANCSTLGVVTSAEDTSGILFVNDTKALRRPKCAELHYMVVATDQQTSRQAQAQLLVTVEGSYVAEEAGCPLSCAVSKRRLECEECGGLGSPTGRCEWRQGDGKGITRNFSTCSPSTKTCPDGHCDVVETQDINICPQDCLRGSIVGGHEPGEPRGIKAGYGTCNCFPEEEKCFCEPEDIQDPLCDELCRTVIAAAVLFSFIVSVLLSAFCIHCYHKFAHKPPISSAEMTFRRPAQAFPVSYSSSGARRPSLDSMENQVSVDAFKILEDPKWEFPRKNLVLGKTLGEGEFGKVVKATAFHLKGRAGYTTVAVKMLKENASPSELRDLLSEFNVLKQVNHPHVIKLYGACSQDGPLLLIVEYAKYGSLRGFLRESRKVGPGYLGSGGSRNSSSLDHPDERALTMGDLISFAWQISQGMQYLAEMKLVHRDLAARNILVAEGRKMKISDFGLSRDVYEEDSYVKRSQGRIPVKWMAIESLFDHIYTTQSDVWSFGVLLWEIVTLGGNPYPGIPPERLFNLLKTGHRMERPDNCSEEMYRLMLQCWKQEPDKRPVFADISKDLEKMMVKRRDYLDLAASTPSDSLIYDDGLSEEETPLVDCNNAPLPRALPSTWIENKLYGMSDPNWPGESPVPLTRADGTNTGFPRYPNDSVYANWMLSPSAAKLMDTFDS

Turning to `CCOc1cc(C(=O)N2CCC(N3CCN(C)CC3)CC2)ccc1Nc1ncc2c(n1)N(C1CCCC1)c1ccccc1C(=O)N2C` [Compound 26], in experiment [1], the “KINOMEscan: RET” value is recorded as 100. Also, the “KINOMEscan: IKK-alpha” value in experiment [2] is 100. Further, in experiment [3], the “KINOMEscan: ABL1(T315I)-nonphosphorylated” value is 95 and the “KINOMEscan: ABL1(T315I)-phosphorylated” value is recorded as 92.
As for `COc1cc(C(=O)N2CCC(N3CCN(C)CC3)CC2)ccc1Nc1ncc2c(n1)N1CCc3cccc(c31)C(=O)N2C` [Compound 24], the “KINOMEscan: ABL1(T315I)-phosphorylated” value in experiment [3] is on record as 100.
As for `COc1cc(C(=O)N2CCC(N3CCN(C)CC3)CC2)ccc1Nc1ncc2c(n1)N(C)c1ccccc1C(=O)N2C` [15 (LRRK2-IN-1)], the “KINOMEscan: RET” value in experiment [1] came out at 100. Moreover, in experiment [2], the “KINOMEscan: IKK-alpha” value worked out at 100. For the same molecule, in experiment [3], the “KINOMEscan: ABL1(T315I)-nonphosphorylated” value is on record as 100 and the “KINOMEscan: ABL1(T315I)-phosphorylated” value is on record as 58.
Consider `COc1cc(C(=O)N2CCC(N3CCN(C)CC3)CC2)ccc1Nc1ncc2c(n1)N(C1CCCC1)c1ccccc1C(=O)N2C` [Compound 25, 11-cyclopentyl-2-((2-methoxy-4-(4-(4-methylpiperazin-1-yl)piperidine-1-carbonyl)phenyl)amino)-5-methyl-5H-benzo[e]pyrimido[5,4-b][1,4]diazepin-6(11H)-one], for which the “KINOMEscan: RET” value in experiment [1] is given as 100. Further, the “KINOMEscan: IKK-alpha” value in experiment [2] stood at 100. For the same molecule, in experiment [3], the “KINOMEscan: ABL1(T315I)-nonphosphorylated” value was determined as 100 and the “KINOMEscan: ABL1(T315I)-phosphorylated” value is given as 100.

Values taken from PMC3914206.
